Common to all, as to experiment: inhibition of tumour cell growth, NCI panel, 48 h
For experiment [1], the system named is 786-0 renal.
For experiment [2], the system named is ACHN renal.
The subject of experiment [3] is HT29 colon.
Experiment [4] concerns K-562 leukemia.
Experiment [5] deals with LOX IMVI melanoma.
In experiment [6] the test system is M14 melanoma.
Experiment [7] has as its system SK-MEL-28 melanoma.
Experiment [8] deals with SNB-75 CNS.
In experiment [9] the test system is SW-620 colon.
Experiment [10] concerns U251 CNS.

SMILES strings stand for the structures.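 Following 48 hours of exposure in 96-well plates, responses at five concentrations were used to interpolate endpoints linearly. GI50 marks 50% less growth. TGI marks complete inhibition of growth.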 Some results are limits rather than exact numbers.

Consider `C=C(Cn1c2ccccc2c(=O)c2ccccc21)c1ccc(C(=O)Nc2ccccc2N)cc1`, for which the GI50 is 1.89 µM in [1]; > 100 µM in [2]; 2.52 µM in experiment [3]; 1.35 µM in experiment [4]; 50.4 µM in experiment [5]; 12.2 µM in experiment [6]. For the same compound, the GI50 in [7] is > 100 µM; in experiment [8], 1.08 µM; in experiment [9] it was 6.56 µM; in [10] it was 8.1 µM. Further, the TGI in experiment [1] was > 100 µM; in experiment [2], > 100 µM; in [3], > 33.6 µM; in experiment [4], > 100 µM; in experiment [5] it was > 100 µM; in experiment [6], > 100 µM. Besides, the TGI was > 100 µM in experiment [7], > 28 µM in experiment [8], > 100 µM in experiment [9] and > 100 µM in experiment [10].
As for `CCN1CCN(c2nc(NNC(=O)c3ccccc3)nc(N3CCN(C(c4ccccc4)c4ccccc4)CC3)n2)CC1`, the GI50 is 1.82 µM in experiment [1]; 2.53 µM in [2]; 2.95 µM in experiment [3]; 1.77 µM in experiment [4]; 1.82 µM in experiment [5]; 1.88 µM in experiment [6]. Besides, the GI50 was 1.8 µM in experiment [7], 3.96 µM in [8], 2.3 µM in [9] and 3.05 µM in experiment [10]. Besides, the TGI turned out to be 3.47 µM in [1]; 6.56 µM in [2]; 13.4 µM in [3]; 4.32 µM in [4]; 3.35 µM in experiment [5]; 3.56 µM in experiment [6]. Also, the TGI came to 3.49 µM in [7], 18.1 µM in [8], 5.88 µM in [9] and 10.5 µM in experiment [10].
`COC(=O)[C@H](Cc1cn(C)cn1)NC(=O)[C@@H](NC(=O)Nc1cc(C(F)(F)F)cc(C(F)(F)F)c1)C(C)C`: the GI50 is > 10 µM in [1]; > 10 µM in experiment [2]; 2.23 µM in experiment [3]; 4.74 µM in experiment [4]; 1.74 µM in experiment [5]; 8.62 µM in experiment [6]. For the same compound, the GI50 in experiment [7] is 2.05 µM; in experiment [8], 6.44 µM; in [9] it was 2.59 µM; in experiment [10] it was > 10 µM. The TGI was > 10 µM in [1]; > 10 µM in [2]; 4.89 µM in experiment [3]; > 10 µM in experiment [4]; 3.4 µM in [5]; > 10 µM in experiment [6]. Moreover, the TGI in experiment [7] was 4.99 µM; in [8], > 10 µM; in experiment [9] it was 8.25 µM; in experiment [10] it was > 10 µM.
In the case of `COc1ccc(/C(CC2OC(=O)c3ccccc32)=N\NC(N)=O)cc1` (stereo not given), the TGI in [1], in [2], in experiment [3], in experiment [4], in [5] and in experiment [6] was > 100 µM each time. Further, the TGI in [7], in experiment [8], in experiment [9] and in experiment [10] was > 100 µM in each case.
As for `COc1cc(CCc2ccc(OC(C)=O)cc2)cc(OC)c1OC`, the TGI in experiment [1], in [2], in experiment [3], in experiment [4], in [5] and in [6] was > 100 µM in each case. Further, the TGI in [7], in experiment [8], in experiment [9] and in [10] was > 100 µM throughout.
Turning to `O=c1[nH]c2ccc([N+](=O)[O-])c(Cl)c2c2ccccc12`, the TGI in experiment [1] was 48.3 µM; in experiment [2], 18.9 µM; in experiment [3] it was 10.6 µM; in experiment [4], > 100 µM; in experiment [5], > 100 µM; in experiment [6], > 100 µM. Besides, the TGI stood at 25.8 µM in [7], 56.7 µM in [8], 17.9 µM in experiment [9] and 18 µM in experiment [10].
Consider `COc1cc(N(CCC#N)CCC#N)ccc1/C(N=Nc1ccc(C(=O)O)cc1)=N/NC(=O)c1cc(Br)ccc1O`, for which the GI50 in [1] was 97.8 µg/mL; in [2], 108 µg/mL; in experiment [3], 58.5 µg/mL; in experiment [4], > 150 µg/mL; in experiment [5] it was 84.4 µg/mL; in [6], 72 µg/mL. The GI50 in [7] is > 150 µg/mL; in experiment [8] it was 57.2 µg/mL; in experiment [9] it was > 150 µg/mL; in experiment [10] it was > 150 µg/mL. In addition, the TGI in experiment [1], in [2], in experiment [3], in [4], in [5] and in experiment [6] was > 150 µg/mL each time. Further, the TGI was > 150 µg/mL in [7], 130 µg/mL in experiment [8], > 150 µg/mL in [9] and > 150 µg/mL in experiment [10].
`Cn1ccnc1C(=O)/C=C/c1ccc(C(=O)Nc2c(F)c(F)c(F)c(F)c2F)cc1`: the GI50 in experiment [1] was 1.83 µM; in experiment [2], 1.65 µM; in experiment [3], 1.77 µM; in [4], 0.526 µM; in [5], 1.5 µM; in [6] it was 1.77 µM. Further, the GI50 in experiment [7] is 2.17 µM; in experiment [8], 1.33 µM; in experiment [9], 1.19 µM; in experiment [10], 1.09 µM. For the same compound, the TGI in [1] came out at 3.62 µM; in experiment [2], 3.01 µM; in [3] it was 3.89 µM; in [4], 2.83 µM; in [5], 2.87 µM; in experiment [6] it was 3.7 µM. The TGI in experiment [7] was found to be 5.19 µM; in experiment [8] it was 2.69 µM; in experiment [9], 2.86 µM; in experiment [10] it was 2.34 µM.
Regarding `C#Cc1cccc(NC(=O)C2CCCN(C(=O)CCl)C2)c1` (stereo not given), the GI50 in [1] was > 82.5 µM; in [2], 16.1 µM; in experiment [3], > 82.5 µM; in [4] it was 36.6 µM; in experiment [5], 14.4 µM; in [6], 29.9 µM. For the same compound, the GI50 in experiment [7] is > 82.5 µM; in experiment [8] it was > 82.5 µM; in experiment [9], 29.5 µM; in experiment [10] it was > 82.5 µM. Further, the TGI in experiment [1] is > 82.5 µM; in experiment [2], 31.6 µM; in experiment [3], > 82.5 µM; in [4], > 82.5 µM; in experiment [5], 28.7 µM; in [6] it was > 82.5 µM. The TGI in [7], in experiment [8], in [9] and in [10] was > 82.5 µM each time.
On to `CN(C)c1ccc(O[Si](Oc2ccc(N(C)C)cc2)(Oc2ccc(N(C)C)cc2)Oc2ccc(N(C)C)cc2)cc1`, for which the TGI in [1], in experiment [2], in experiment [3], in [4], in [5] and in experiment [6] was > 100 µM throughout. For the same compound, the TGI in experiment [7], in [8], in experiment [9] and in experiment [10] was > 100 µM throughout.
With `Nc1ncnc2c1nc(Cl)n2C1OC(CO)C(O)C1O` (stereo not given), the TGI in experiment [1] was > 100 µM; in experiment [2], > 100 µM; in [3] it was > 83 µM; in experiment [4] it was > 100 µM; in [5], > 100 µM; in experiment [6], > 100 µM. Further, the TGI in experiment [7] is > 100 µM; in experiment [8] it was > 56.6 µM; in [9], > 100 µM; in experiment [10] it was > 100 µM.
Regarding `COc1cccc(C2C(C#N)=C(N)Oc3cc4c(cc32)OCO4)c1` (stereo not given), the GI50 was 0.0621 µM in [1]; 2.26 µM in [2]; 0.0417 µM in experiment [3]; 0.04 µM in [4]; 0.234 µM in [5]; 0.059 µM in experiment [6]. Besides, the GI50 in experiment [7] was 0.0813 µM; in [8] it was 0.0275 µM; in experiment [9], 0.0369 µM; in experiment [10], 0.0449 µM. Besides, the TGI in experiment [1] is 24.1 µM; in [2] it was > 100 µM; in experiment [3], 2.42 µM; in [4], > 100 µM; in experiment [5], 17.2 µM; in experiment [6], 16.3 µM. Further, the TGI in experiment [7] was 32.6 µM; in [8], 46.5 µM; in [9], > 63.2 µM; in experiment [10], 12.1 µM.
In the case of `OCCCCC#Cc1ccccc1C#Cc1ccc(C(F)(F)F)cc1`, the GI50 in experiment [1] was 4.72 µM; in experiment [2] it was 17.5 µM; in experiment [3], 3.43 µM; in experiment [4], 18.2 µM; in experiment [5], 17.1 µM; in experiment [6], 17.1 µM. Further, the GI50 was 8.4 µM in experiment [7], 15.8 µM in experiment [8], 17 µM in [9] and 14.8 µM in experiment [10]. The TGI in [1] was determined as 18.1 µM; in [2], 31.2 µM; in [3], 18.1 µM; in experiment [4], 43.6 µM; in [5] it was 31.5 µM; in experiment [6] it was 38.3 µM. The TGI was 21.7 µM in [7], 30.2 µM in experiment [8], 35.2 µM in experiment [9] and 28.6 µM in [10].

Values taken from PubChem BioAssay (NCI).
